Reference: US9096601B2 (CSPC Zhongqi Pharmaceutical Technology (Shijiazhuang) Co., …, priority 2010, dated 2015)

What was measured:
[1] = system: non-small cell lung carcinoma cell strain HCC827; experiment: In-vitro tumor cell proliferation inhibition, MTT; format: cell-based, human
Procedure, shortened: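 Cells grown in RPMI-1640 with 10% FBS, seeded overnight (HCC827 at 6×10^4 cells/ml), then exposed to graded compound concentrations for 72 h at 37 °C, 5% CO2, with 1% DMSO solvent control. MTT absorbance at 570 nm; inhibition relative to control; triplicate wells, ≥3 repeats.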

[2] = system: non-small cell lung carcinoma cell strain PC-9 (EGFR delE746-A750 deletion mutation); experiment: In-vitro tumor cell proliferation inhibition, MTT; format: cell-based, human; settings: 72 hours
[3] = system: non-small cell lung carcinoma cell strain H1975 (EGFR L858R/T790M mutation); experiment: In-vitro tumor cell proliferation inhibition, MTT; format: cell-based, human
[4] = system: non-small cell lung carcinoma cell strain H292 (EGFR WT); experiment: In-vitro tumor cell proliferation inhibition, MTT; format: cell-based, human
[5] = molecular target: EGFR L858R mutant type (Homo sapiens (Human), UniProt P00533, L858R); experiment: Kinase inhibitory activity, isotopic labeling (γ-33P-ATP); format: biochemical; settings: ATP 200 μM (Km)
Experimental: (§1) The object of this assay was to test the inventive compounds for the kinase inhibitory activity in vitro. In this assay, an isotopic labeling method was used to label the γ phosphate group on ATP. […] Staurosporine was used as a reference molecule (or referred to as a positive control). […] The IC50 value can be obtained by the calculation of the inhibitory rates at a series of different concentrations of the tested compounds.
(§2) To a reaction tube were successively added the buffer solution (8 mM MOPS, pH 7.0, 0.2 mM EDTA, 10 mM MnCl2), the kinase to be tested (5-10 mU) (EGFR/ALK/BTK/c-KIT/c-SRC/MET/PDGFRα/VEGFR2), the substrate for the kinase to be tested (a reference material), 10 mM of the solution of magnesium acetate and γ-^33 P-ATP, and different concentrations of the tested compounds. […] The reaction was terminated with […] of the 3% phosphate buffer solution. 10 μL of the reaction liquid was titrated on the Filtermat A membrane. The membrane was washed with 75 mM of the phosphate solution thrice (5 minutes each time), and then with methanol once, and finally dried. The membrane was subjected to a scintillation counting. The value of the scintillation counting reflected the phosphorylation level of the substrate and therefore could characterize the inhibition of the kinase activity.

[6] = molecular target: EGFR L858R/T790M double mutant type (Homo sapiens (Human), UniProt P00533, L858R/T790M); experiment: as above; format: biochemical; settings: ATP 45 μM (Km)
Experimental: as §1, §2

[7] = molecular target: EGFR wild type (Homo sapiens (Human), UniProt P00533); experiment: as above; format: biochemical; settings: ATP 10 μM (Km)
Experimental: as §1, §2

[8] = system: human non-small cell lung carcinoma cell strain HCC827; experiment: In-vivo anti-tumor test, nude mouse subcutaneously transplanted non-small cell lung carcinoma model; settings: nude mice, intragastric
Text: The object of this assay was to determine the in-vivo anti-tumor effect of the present compound. In this assay, a nude mouse subcutaneously transplanted non-small cell lung carcinoma model was used to test the present compound 8-10 for the in-vivo anti-tumor activity. The used cell strain was human non-small cell lung carcinoma cell strain HCC827.
BALB/C nude mice, aged 6-8 weeks, were inoculated with HCC827 cell subcutaneously at the posterior segment of rib in a concentration of about 5×10^6 cells/0.1 ml per mouse. Upon the growth of the tumor up to 200-300 mm^3 (about 20 days), mice were grouped (n=6) and administrated intragastrically.
(§3) Observation Indices: the mice were measured every three days for the weight, and the length and width of tumor, and the tumor volume was calculated as length×width^2×0.52. […] 3. Results

[9] = system: human acute myelogenous leukemia cell strain MV4-11; experiment: In-vivo anti-tumor test, NOD-SCID mouse subcutaneously transplanted human leukemic solid tumor model; settings: NOD-SCID mice, intragastric
Text: The object of this assay was to determine the in-vivo anti-tumor effect of the present compound. In this assay, a NOD-SCID mouse subcutaneously transplanted human leukemic solid tumor model was used to test the present compound 8-29 for the in-vivo anti-tumor activity. The used cell strain was human acute myelogenous leukemia cell strain MV4-11.
NOD-SCID mice, aged 6-8 weeks, were inoculated with MV4-11 cell subcutaneously at the posterior segment of rib in a concentration of about 1×10^7 cells/0.1 ml per mouse. Upon the growth of the tumor up to 400-500 mm^3 (about 20 days), mice were grouped (n=6) and administrated intragastrically.
as §3

Chain of EGFR L858R/T790M double mutant type (P00533 25-1210 T790M/L858R): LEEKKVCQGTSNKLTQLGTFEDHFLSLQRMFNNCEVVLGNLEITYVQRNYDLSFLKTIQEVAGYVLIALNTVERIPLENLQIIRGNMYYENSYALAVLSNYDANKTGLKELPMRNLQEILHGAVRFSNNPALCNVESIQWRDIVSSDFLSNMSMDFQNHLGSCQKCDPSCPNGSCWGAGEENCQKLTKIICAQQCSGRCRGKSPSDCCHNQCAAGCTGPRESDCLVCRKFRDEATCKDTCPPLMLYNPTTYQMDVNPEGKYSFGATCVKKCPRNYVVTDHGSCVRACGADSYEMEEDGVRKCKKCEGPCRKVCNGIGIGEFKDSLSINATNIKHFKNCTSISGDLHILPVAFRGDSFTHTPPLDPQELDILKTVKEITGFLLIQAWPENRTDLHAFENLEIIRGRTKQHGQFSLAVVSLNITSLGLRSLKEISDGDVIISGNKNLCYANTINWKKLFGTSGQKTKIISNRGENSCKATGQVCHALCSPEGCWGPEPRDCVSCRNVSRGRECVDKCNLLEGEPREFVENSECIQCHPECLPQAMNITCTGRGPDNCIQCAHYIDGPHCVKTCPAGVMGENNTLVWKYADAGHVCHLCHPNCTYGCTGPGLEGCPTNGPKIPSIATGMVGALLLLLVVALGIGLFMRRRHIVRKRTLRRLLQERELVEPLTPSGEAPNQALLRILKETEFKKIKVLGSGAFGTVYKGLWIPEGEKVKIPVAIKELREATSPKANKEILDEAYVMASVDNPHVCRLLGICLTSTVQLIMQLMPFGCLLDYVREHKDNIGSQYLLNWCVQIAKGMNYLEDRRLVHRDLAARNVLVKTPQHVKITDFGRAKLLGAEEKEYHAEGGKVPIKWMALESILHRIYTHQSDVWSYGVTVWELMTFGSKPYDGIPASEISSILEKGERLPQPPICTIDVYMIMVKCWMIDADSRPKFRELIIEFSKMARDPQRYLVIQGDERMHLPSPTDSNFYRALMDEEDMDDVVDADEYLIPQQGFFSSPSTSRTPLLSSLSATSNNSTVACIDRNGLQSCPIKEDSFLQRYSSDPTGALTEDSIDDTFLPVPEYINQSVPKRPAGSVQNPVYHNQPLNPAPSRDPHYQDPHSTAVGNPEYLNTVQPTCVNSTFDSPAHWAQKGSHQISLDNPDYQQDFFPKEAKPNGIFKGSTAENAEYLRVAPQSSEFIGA
Chain of EGFR wild type (P00533 25-1210): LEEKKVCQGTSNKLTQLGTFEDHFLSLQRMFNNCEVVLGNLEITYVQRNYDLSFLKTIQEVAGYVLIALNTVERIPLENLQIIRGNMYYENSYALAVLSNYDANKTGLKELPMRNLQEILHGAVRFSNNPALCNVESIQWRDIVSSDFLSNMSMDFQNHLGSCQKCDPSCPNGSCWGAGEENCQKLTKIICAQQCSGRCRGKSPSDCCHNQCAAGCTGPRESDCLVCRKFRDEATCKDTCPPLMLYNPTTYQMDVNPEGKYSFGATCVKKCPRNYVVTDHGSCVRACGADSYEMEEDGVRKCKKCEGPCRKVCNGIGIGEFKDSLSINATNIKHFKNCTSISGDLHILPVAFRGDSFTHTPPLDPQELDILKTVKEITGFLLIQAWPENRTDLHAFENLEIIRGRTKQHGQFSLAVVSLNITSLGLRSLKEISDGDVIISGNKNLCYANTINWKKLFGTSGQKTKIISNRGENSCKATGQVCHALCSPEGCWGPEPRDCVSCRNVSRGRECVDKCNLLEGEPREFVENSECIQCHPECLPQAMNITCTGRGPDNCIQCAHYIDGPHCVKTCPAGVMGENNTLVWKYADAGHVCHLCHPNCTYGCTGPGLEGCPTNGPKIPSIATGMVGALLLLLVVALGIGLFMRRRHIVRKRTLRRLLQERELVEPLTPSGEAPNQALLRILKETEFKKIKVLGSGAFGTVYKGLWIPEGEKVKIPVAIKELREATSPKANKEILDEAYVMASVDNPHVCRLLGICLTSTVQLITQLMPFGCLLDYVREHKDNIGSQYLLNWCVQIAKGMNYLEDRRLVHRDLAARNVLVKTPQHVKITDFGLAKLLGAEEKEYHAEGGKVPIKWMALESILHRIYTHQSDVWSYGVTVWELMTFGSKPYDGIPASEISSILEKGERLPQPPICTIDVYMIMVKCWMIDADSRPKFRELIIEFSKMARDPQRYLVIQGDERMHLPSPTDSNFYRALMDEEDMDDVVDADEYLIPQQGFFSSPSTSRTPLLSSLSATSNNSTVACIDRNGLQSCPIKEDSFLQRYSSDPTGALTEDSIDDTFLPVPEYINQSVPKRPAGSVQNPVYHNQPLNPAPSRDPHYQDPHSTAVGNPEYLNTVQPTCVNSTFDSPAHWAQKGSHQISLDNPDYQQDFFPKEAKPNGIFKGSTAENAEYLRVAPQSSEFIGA
Chain of EGFR L858R mutant type (P00533 25-1210 L858R): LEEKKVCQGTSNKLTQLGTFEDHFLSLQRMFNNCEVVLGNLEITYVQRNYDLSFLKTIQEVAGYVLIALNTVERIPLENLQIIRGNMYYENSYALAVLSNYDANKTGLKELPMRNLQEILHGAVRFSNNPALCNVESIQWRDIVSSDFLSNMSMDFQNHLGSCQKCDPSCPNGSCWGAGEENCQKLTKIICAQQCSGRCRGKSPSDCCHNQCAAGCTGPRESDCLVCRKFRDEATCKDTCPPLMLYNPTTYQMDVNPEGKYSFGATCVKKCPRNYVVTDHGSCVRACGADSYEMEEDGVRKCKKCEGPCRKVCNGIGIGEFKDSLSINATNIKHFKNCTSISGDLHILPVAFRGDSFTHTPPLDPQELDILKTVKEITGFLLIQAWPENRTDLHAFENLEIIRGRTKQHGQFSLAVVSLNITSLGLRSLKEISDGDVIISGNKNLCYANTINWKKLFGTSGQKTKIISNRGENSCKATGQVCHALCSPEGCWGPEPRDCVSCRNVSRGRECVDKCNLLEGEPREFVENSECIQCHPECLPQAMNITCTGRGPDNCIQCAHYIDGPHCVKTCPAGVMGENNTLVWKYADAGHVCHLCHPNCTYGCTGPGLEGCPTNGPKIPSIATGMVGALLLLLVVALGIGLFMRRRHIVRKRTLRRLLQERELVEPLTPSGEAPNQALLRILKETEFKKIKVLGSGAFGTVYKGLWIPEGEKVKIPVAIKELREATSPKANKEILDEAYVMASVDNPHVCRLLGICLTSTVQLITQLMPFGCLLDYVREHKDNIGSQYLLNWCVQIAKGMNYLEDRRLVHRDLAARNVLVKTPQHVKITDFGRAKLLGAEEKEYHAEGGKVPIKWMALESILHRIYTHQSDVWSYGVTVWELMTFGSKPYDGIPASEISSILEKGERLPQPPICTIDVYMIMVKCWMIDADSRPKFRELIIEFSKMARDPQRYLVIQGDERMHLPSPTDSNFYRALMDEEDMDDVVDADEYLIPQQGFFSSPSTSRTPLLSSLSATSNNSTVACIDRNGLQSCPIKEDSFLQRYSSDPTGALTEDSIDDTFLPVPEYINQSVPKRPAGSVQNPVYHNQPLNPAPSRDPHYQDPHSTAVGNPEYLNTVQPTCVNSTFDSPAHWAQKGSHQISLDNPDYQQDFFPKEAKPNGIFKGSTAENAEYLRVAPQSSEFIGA

Compound | IC50 ([1]; 72 hours) [nM] | IC50 [2] [nM] | IC50 ([3]; 72 hours) [nM] | IC50 ([4]; 72 hours) [nM] | IC50 [5] [µM] | IC50 [6] [µM] | IC50 [7] [µM] | IC50 ([1]; Homo sapiens, HCC827, 72 hours) [nM] | IC50 ([2]; Homo sapiens) [nM] | IC50 ([3]; Homo sapiens, NCI-H1975, 72 hours) [nM] | IC50 ([4]; Homo sapiens, NCI-H292, 72 hours) [nM] | in-vivo tumor growth inhibition ([8]; HCC827 xenograft, 2 mg/kg q.d. or higher (2, 5, 10, 20 mg/kg q.d.)) | toxicity (untoward reactions: weight reduction, exanthema, diarrhea) ([8]; 2-20 mg/kg q.d.) | in-vivo tumor growth inhibition ([9]; MV4-11 xenograft, 5 mg/kg q.d. or higher (5, 10, 20 mg/kg q.d.)) | toxicity (untoward reactions: weight reduction, exanthema, diarrhea) ([9]; 5-20 mg/kg q.d.)
CC(C)n1c(Nc2ccccc2)nc2cnc(Nc3ccc(C(=O)NN4CCN(C)CC4)cc3)nc21 [Compound 8-1] | 2 | 105 | 7600 | 1390 | 0.008 | 0.09 | 0.003 | – | – | – | – | – | – | – | –
CC(C)n1c(Nc2ccc(F)c(Cl)c2)nc2cnc(Nc3ccc(C(=O)NN4CCN(C)CC4)cc3)nc21 [Compound 8-2] | 1.3 | 558 | > 10000 | 883 | 0.001 | < 0.001 | 0.002 | – | – | – | – | – | – | – | –
COc1cc(C(=O)NN2CCN(C)CC2)ccc1Nc1ncc2nc(Nc3ccccc3)n(C(C)C)c2n1 [Compound 8-7, 3-methoxy-4-(9-isopropyl-8-phenylamino-9H-purin-2-ylamino)-N-(4-methylpiperazin-1-yl)benzamide] | – | – | – | – | – | – | – | 7.5 | 12.1 | > 10000 | 138 | – | – | – | –
CC(C)n1c(Nc2ccccc2)nc2cnc(Nc3ccc(C(=O)NC4CCN(C)CC4)cc3)nc21 [Compounds 8-9] | 4.2 | 72.3 | > 10000 | 160 | 0.0004 | 0.006 | < 0.001 | – | – | – | – | – | – | – | –
CC(C)n1c(Nc2ccccc2)nc2cnc(Nc3ccc(N4CCN(C)CC4)cc3)nc21 [Compounds 8-10] | 0.1 | 0.9 | 2000 | 10.5 | 0.005 | 0.046 | 0.005 | – | – | – | – | substantial in-vivo growth inhibition | low toxicity | – | –
CC(C)n1c(Nc2cccc(Br)c2)nc2cnc(Nc3ccc(N4CCN(C)CC4)cc3)nc21 [Compounds 8-11] | 0.2 | 0.2 | 1730 | 8.8 | 0.004 | 0.005 | 0.007 | – | – | – | – | – | – | – | –
C#Cc1cccc(Nc2nc3cnc(Nc4ccc(N5CCN(C)CC5)cc4)nc3n2C(C)C)c1 [Compounds 8-12] | 0.2 | 0.2 | 1930 | 10.7 | 0.003 | 0.003 | 0.004 | – | – | – | – | – | – | – | –
CC(C)n1c(Nc2ccc(F)c(Cl)c2)nc2cnc(Nc3ccc(N4CCN(C)CC4)cc3)nc21 [Compounds 8-13] | 0.2 | 0.3 | 2000 | 6.1 | 0.003 | 0.009 | 0.004 | – | – | – | – | – | – | – | –
CC(C)n1c(Nc2ccc(Br)cc2)nc2cnc(Nc3ccc(N4CCN(C)CC4)cc3)nc21 [Compounds 8-15] | 0.2 | 6.4 | > 10000 | 220 | 0.001 | 0.015 | 0.003 | – | – | – | – | – | – | – | –
CC(C)n1c(Nc2cccc(C(F)(F)F)c2)nc2cnc(Nc3ccc(N4CCN(C)CC4)cc3)nc21 [Compounds 8-16] | 0.2 | 16.8 | 1820 | 129 | 0.001 | 0.012 | 0.003 | – | – | – | – | – | – | – | –
COc1cccc(Nc2nc3cnc(Nc4ccc(N5CCN(C)CC5)cc4)nc3n2C(C)C)c1 [Compounds 8-17] | 0.2 | 2.5 | 1900 | 29.6 | 0.001 | 0.004 | 0.004 | – | – | – | – | – | – | – | –
COc1ccc(Nc2nc3cnc(Nc4ccc(N5CCN(C)CC5)cc4)nc3n2C(C)C)cc1 [Compounds 8-18] | 117 | 34.9 | > 10000 | 531 | 0.005 | 0.057 | 0.03 | – | – | – | – | – | – | – | –
CC(C)n1c(Nc2ccc(NC(=O)Nc3ccc(F)c(Cl)c3)cc2)nc2cnc(Nc3ccc(N4CCN(C)CC4)cc3)nc21 [Compounds 8-21] | 51.6 | 85.9 | 7310 | 1160 | 0.005 | 0.005 | 0.011 | – | – | – | – | – | – | – | –
CC(C)n1c(Nc2ccc(C(=O)Nc3cccc(F)c3)cc2)nc2cnc(Nc3ccc(N4CCN(C)CC4)cc3)nc21 [Compounds 8-22] | > 1000 | 2790 | > 10000 | 1730 | 0.01 | 0.087 | 0.117 | – | – | – | – | – | – | – | –
CN1CCN(c2ccc(Nc3ncc4nc(Nc5ccccc5)n(C5CC5)c4n3)cc2)CC1 [Compounds 8-23] | 0.2 | 35.9 | > 10000 | 154 | 0.002 | 0.041 | 0.007 | – | – | – | – | – | – | – | –
CN1CCN(c2ccc(Nc3ncc4nc(Nc5ccccc5)n(C)c4n3)cc2)CC1 [Compounds 8-24] | 0.2 | 6 | > 10000 | 171 | 0.003 | 0.522 | 0.012 | – | – | – | – | – | – | – | –
CN1CCN(c2ccc(Nc3ncc4nc(Nc5ccccc5)[nH]c4n3)cc2)CC1 [Compounds 8-25] | 52.8 | 258 | > 10000 | 1650 | 0.005 | 0.458 | 0.029 | – | – | – | – | – | – | – | –
CC(C)n1c(Nc2ccc(C(F)(F)F)cc2)nc2cnc(Nc3ccc(N4CCN(C)CC4)cc3)nc21 [Compounds 8-27] | 82.3 | 115 | > 10000 | 4190 | 0.005 | 0.054 | 0.034 | – | – | – | – | – | – | – | –
CC(C)n1c(Nc2cccnc2)nc2cnc(Nc3ccc(N4CCN(C)CC4)cc3)nc21 [Compounds 8-29] | 7.2 | 10 | > 10000 | 180 | 0.004 | 0.064 | 0.031 | – | – | – | – | – | – | substantial in-vivo growth inhibition | low toxicity
CC(C)n1c(NC2CCCCC2)nc2cnc(Nc3ccc(N4CCN(C)CC4)cc3)nc21 [Compounds 8-30] | 483 | 55.1 | > 10000 | 201 | 0.005 | 0.228 | 0.015 | – | – | – | – | – | – | – | –
C=CC(=O)Nc1cccc(Nc2ncc3nc(Nc4ccccc4)n(C(C)C)c3n2)c1 [Compounds 8-38] | 0.5 | 0.7 | 644 | 7.3 | 0.0006 | 0.037 | 0.002 | – | – | – | – | – | – | – | –
